Two molecules from paper PMC9133036 (Nature Communications, 2022) can be followed below.

Numbering of substitutions follows the chain as printed. Where “and” joins values, the source holds several entries; their conditions need not be identical. Equal values may be shown once. Read-outs that look alike come from different tables or passages of the source.

What all share (assay type): cell-based
For one assay, the target named is T1, OX2R T111S (Homo sapiens, UniProt O43614, T111S).
T1 construct: FLAG; expressed in transfected cells; host or cells: HEK293
T1 sequence (O43614 1-444 T111S): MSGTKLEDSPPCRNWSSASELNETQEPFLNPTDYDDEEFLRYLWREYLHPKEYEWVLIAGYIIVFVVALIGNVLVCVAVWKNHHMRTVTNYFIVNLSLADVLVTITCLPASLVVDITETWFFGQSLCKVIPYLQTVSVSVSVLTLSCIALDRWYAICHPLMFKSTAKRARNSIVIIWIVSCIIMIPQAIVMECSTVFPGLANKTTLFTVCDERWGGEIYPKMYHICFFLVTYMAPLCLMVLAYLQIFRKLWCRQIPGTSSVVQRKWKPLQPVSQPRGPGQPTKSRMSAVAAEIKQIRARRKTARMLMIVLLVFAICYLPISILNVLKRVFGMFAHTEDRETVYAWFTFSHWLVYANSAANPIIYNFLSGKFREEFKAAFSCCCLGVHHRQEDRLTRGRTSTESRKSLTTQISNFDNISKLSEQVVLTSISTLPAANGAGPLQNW
In words: IP accumulation assay, OX2R T111S. The source says:
The IP assay was adapted from a prior precedent. HEK293 cells were maintained in DMEM-high glucose (Millipore Sigma) supplemented with 5% fetal bovine serum (Corning) and penicillin-streptomycin (Millipore Sigma). Receptor constructs used were the full-length wild-type (or mutant) human OX1R and OX2R sequences cloned into pCDNA3. To enhance the Emax in the IP assay, a plasmid encoding full-length human Gαq subunit[66] was co-transfected into HEK293 cells with plasmids encoding orexin receptor constructs using Lipofectamine 3000 (Thermo Fisher). 24 h after transfection, the cells were plated on poly-D-lysine coated (Millipore Sigma) tissue culture-treated 96 well white plates with clear bottoms (Perkin Elmer) at 30,000 cells per well in Inositol-free DMEM (MP Biomedicals) supplemented with 5% fetal bovine serum, 4 mM L-glutamine (Millipore Sigma), penicillin-streptomycin, and about 5 uCi (5 ul) per ml myo-[2-3H] inositol (Perkin Elmer). The following day, the media was replaced with agonists that were diluted in HBSS (Millipore Sigma) containing 10 mM lithium chloride (Millipore Sigma) and incubated at 37 °C for 45 min. Then agonists were removed and cells were lysed on ice for 30 min with 10 mM formic acid (Millipore Sigma). 1.25 mg of poly-lysine coated YSI SPA beads (Perkin Elmer) was added to each well. The plates were mixed on an orbital shaker for 30 min. The plates were read on a MicroBeta scintillation counter (Perkin Elmer) the following day. IP accumulation assays on different constructs were performed in n ≥ 3 independent experiments (each done in duplicate), where n is shown in Supplementary Table 2.

The next assay concerns the target T2, OX2R Q134A (Homo sapiens, UniProt O43614, Q134A).
T2 sequence (O43614 1-444 Q134A): T1 sequence (O43614 1-444 T111S) with S111T, Q134A
The experiment in a line: β-arrestin PathHunter assay, OX2R Q134A. Details: expressed in transfected cells; host or cells: CHO-K1 stably expressing EA β-arrestin2. Conditions: for EC50: β-arrestin recruitment. As for the experimental part:
β-Arrestin recruitment activity was measured by using the PathHunter system (DiscoveRX) according to the manufacturer’s instruction. Receptor constructs used were the full-length wild-type (or mutant) human OX2R sequences cloned into pCMV-ProLink (DiscoveRX). CHO-K1 cells stably expressing EA β-arrestin2 (DiscoveRX) were plated on 384 well white plates (Thermo Fisher) at 4000 cells/well in HamF12 (Wako Pure Chemical Industries) supplemented with 10% fetal bovine serum (Corning) and penicillin-streptomycin (Wako Pure Chemical Industries) and incubated overnight at 37 °C under 5% CO2. Cells were transfected with plasmids encoding wild type or each mutant ProLink-tagged human OX2R using FuGENE HD (Promega). […] Detection reagent was added and incubated for 1 h at room temperature. Luminescent signal was detected using an EnVision plate reader (PerkinElmer). β-arrestin assays on different constructs were performed in two or three independent experiments (each done in quadruplicate). Dose response curves (shown in Supplementary Fig. 8) were fitted to the three-parameter model ‘log(agonist) vs response’ in GraphPad Prism to determine pEC50 values.
Background: Activated receptors often draw arrestin, which recruitment assays turn into a signal.

The target in another assay is T3, human OX2R wild type (Homo sapiens, UniProt O43614).
T3 sequence (O43614 1-444): T1 sequence (O43614 1-444 T111S) with S111T
In words: β-arrestin PathHunter assay, OX2R WT. On the set-up: expressed in transfected cells; host or cells: CHO-K1 stably expressing EA β-arrestin2. The conditions noted are these: listed as OxB.

Method for human OX2R wild type: β-Arrestin recruitment activity was measured by using the PathHunter system (DiscoveRX) according to the manufacturer’s instruction. Receptor constructs used were the full-length wild-type (or mutant) human OX2R sequences cloned into pCMV-ProLink (DiscoveRX). […] Cells were transfected with plasmids encoding wild type or each mutant ProLink-tagged human OX2R using FuGENE HD (Promega). […] Detection reagent was added and incubated for 1 h at room temperature. Luminescent signal was detected using an EnVision plate reader (PerkinElmer). β-arrestin assays on different constructs were performed in two or three independent experiments (each done in quadruplicate). Dose response curves (shown in Supplementary Fig. 8) were fitted to the three-parameter model ‘log(agonist) vs response’ in GraphPad Prism to determine pEC50 values.

In the case of `COC(=O)N1CCC[C@H](NS(C)(=O)=O)[C@@H]1CO[C@H]1CC[C@@H](c2ccccc2)CC1` [TAK-925, methyl (2R,3S)−3-[(methylsulfonyl)amino]−2-{[(cis−4-phenylcyclohexyl)oxy]methyl}piperidine-1-carboxylate], the EC50 was 0.23 µM on OX2R T111S (IP accumulation); greater than 30.2 µM on OX2R Q134A (pEC50 ± SEM, read-out: pEC50 (converted)); greater than 30 µM on OX2R Q134A (read-out: EC50). For the same molecule, the “% IP accumulation” value on OX2R T111S (TAK-925 conc (log, M) -4.00, normalized to OX2R WT Emax) was 70.98% and 87.26% and 72.84%; at OX2R T111S (TAK-925 conc (log, M) -4.48) it was 81.25% and 84.62% and 46.26%; at OX2R T111S (TAK-925 conc (log, M) -4.95) it was 89.34% and 80.76% and 67.67%; at OX2R T111S (TAK-925 conc (log, M) -5.43), 71.72% and 74.73% and 72.02%; at OX2R T111S (TAK-925 conc (log, M) -5.91) it was 64.42% and 69.82% and 64.34%; at OX2R T111S (TAK-925 conc (log, M) -6.39) it was 51.66% and 41.45% and 43.47%. In addition, the “% IP accumulation” value on OX2R T111S (TAK-925 conc (log, M) -6.86) is 34.40% and 35.79% and 28.55%; on OX2R T111S (TAK-925 conc (log, M) -7.34) it was 18.97% and 17.10% and 14.95%; on OX2R T111S (TAK-925 conc (log, M) -7.82), 8.44% and 12.15% and 9.41%; on OX2R T111S (TAK-925 conc (log, M) -8.29) it was 4.76% and 0.00% and 2.26%; at OX2R T111S (TAK-925 conc (log, M) -8.77), 0.00% and 8.93%. In addition, the Emax at OX2R T111S (relative to OX2R WT/TAK-925) was 76. Also, the “β-arrestin recruitment, change on mutation of Gln134” value on OX2R Q134A is “large reductions”.
As for orexin B, the “beta-arrestin recruitment fold change” value at human OX2R wild type (OxB concentration -6.00 (log, M)) is 25.382 fold and 21.415 fold and 21.711 fold and 14.809 fold; at human OX2R wild type (OxB concentration -6.52 (log, M)), 25.694 fold and 21.531 fold and 23.664 fold and 15.569 fold; at human OX2R wild type (OxB concentration -7.00 (log, M)) it was 27.509 fold and 22.224 fold and 24.930 fold and 18.908 fold; on human OX2R wild type (OxB concentration -7.52 (log, M)), 19.878 fold and 18.553 fold and 19.712 fold and 17.639 fold; on human OX2R wild type (OxB concentration -8.00 (log, M)) it was 16.213 fold and 13.992 fold and 16.040 fold and 14.141 fold; on human OX2R wild type (OxB concentration -8.52 (log, M)) it was 11.509 fold and 10.398 fold and 11.514 fold and 8.169 fold. The “beta-arrestin recruitment fold change” value was 4.809 fold and 5.512 fold and 5.245 fold and 5.387 fold on human OX2R wild type (OxB concentration -9.00 (log, M)); 1.518 fold and 1.553 fold and 1.554 fold and 2.080 fold at human OX2R wild type (OxB concentration -10.00 (log, M)).
